Test results: patent US7064143B1, “Positive modulators of nicotinic receptor agonists” (AstraZeneca AB, priority 2000, dated 2006)

melting point | Compound
157 to 158 °C | Cn1c(C(=O)NC(CF)Cc2ccccc2)cc2c(O)cccc21 (single isomer, unassigned; (+)) [Example 29, (+)-N-(1-Fluoromethyl-2-phenylethyl)4-hydroxy-1-methyl-1H-indole-2-carboxamide]
163.5 to 165.5 °C | Cn1c(C(=O)NC(CF)Cc2ccccc2)cc2c(O)cccc21 (centres unmarked) [Example 23, N-(1-Fluoromethyl-2-phenylethyl) 4-hydroxy-1-methyl-1H-indole-2-carboxamide]
